From ChEMBL document CHEMBL3991601, “The target landscape of clinical kinase drugs” (Science, 2017)
pKd: −log10 of the molar value. The source made the active and inactive calls.

Tests used:
[1] = target: T1, Tyrosine--tRNA ligase, cytoplasmic (Homo sapiens, UniProt P54577)
T1 sequence (P54577 whole entry): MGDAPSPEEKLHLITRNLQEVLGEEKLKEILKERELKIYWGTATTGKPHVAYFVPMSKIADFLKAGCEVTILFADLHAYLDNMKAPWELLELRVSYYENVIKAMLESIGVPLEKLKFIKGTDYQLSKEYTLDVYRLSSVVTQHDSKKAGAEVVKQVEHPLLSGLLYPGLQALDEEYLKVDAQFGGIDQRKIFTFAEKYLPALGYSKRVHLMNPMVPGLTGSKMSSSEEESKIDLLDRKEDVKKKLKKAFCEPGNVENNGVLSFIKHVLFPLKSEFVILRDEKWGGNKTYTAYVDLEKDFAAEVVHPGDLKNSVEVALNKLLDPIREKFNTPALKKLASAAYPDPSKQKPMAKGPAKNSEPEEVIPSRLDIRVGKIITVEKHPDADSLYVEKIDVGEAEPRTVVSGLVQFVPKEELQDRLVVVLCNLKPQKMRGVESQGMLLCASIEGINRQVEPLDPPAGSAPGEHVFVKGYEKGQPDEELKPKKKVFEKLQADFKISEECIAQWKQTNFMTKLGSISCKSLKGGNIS

[2] = target: T2, Exosome RNA helicase MTR4 (Homo sapiens, UniProt P42285)
T2 sequence (P42285 whole entry): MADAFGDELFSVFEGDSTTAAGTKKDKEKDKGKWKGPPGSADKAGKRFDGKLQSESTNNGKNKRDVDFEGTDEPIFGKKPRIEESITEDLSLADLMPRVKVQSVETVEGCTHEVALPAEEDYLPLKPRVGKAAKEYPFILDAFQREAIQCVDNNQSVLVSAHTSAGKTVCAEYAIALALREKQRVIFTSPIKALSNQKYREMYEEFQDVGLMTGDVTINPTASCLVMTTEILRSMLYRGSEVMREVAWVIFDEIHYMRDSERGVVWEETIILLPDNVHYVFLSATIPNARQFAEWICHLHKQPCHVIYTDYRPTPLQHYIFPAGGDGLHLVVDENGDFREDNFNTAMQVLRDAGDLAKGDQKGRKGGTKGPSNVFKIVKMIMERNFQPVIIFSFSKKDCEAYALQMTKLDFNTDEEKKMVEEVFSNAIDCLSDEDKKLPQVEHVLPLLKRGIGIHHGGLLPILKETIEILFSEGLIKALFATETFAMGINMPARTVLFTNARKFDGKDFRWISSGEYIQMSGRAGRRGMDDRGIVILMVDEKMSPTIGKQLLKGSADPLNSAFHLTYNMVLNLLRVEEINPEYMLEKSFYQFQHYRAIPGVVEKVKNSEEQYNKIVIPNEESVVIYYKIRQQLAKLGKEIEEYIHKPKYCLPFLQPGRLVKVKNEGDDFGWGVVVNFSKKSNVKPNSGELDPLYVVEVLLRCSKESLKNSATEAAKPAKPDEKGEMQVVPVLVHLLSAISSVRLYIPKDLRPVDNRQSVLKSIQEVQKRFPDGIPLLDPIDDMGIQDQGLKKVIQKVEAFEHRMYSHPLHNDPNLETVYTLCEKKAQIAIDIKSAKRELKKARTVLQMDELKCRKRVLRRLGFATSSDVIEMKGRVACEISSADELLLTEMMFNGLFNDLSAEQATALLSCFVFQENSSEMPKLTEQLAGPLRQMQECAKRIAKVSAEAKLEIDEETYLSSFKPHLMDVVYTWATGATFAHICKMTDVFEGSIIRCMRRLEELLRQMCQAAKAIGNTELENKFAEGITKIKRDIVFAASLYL

[3] = target: Serine/threonine-protein kinase MRCK beta (Homo sapiens, UniProt Q9Y5S2)
Sequence of Serine/threonine-protein kinase MRCK beta (Q9Y5S2 whole entry): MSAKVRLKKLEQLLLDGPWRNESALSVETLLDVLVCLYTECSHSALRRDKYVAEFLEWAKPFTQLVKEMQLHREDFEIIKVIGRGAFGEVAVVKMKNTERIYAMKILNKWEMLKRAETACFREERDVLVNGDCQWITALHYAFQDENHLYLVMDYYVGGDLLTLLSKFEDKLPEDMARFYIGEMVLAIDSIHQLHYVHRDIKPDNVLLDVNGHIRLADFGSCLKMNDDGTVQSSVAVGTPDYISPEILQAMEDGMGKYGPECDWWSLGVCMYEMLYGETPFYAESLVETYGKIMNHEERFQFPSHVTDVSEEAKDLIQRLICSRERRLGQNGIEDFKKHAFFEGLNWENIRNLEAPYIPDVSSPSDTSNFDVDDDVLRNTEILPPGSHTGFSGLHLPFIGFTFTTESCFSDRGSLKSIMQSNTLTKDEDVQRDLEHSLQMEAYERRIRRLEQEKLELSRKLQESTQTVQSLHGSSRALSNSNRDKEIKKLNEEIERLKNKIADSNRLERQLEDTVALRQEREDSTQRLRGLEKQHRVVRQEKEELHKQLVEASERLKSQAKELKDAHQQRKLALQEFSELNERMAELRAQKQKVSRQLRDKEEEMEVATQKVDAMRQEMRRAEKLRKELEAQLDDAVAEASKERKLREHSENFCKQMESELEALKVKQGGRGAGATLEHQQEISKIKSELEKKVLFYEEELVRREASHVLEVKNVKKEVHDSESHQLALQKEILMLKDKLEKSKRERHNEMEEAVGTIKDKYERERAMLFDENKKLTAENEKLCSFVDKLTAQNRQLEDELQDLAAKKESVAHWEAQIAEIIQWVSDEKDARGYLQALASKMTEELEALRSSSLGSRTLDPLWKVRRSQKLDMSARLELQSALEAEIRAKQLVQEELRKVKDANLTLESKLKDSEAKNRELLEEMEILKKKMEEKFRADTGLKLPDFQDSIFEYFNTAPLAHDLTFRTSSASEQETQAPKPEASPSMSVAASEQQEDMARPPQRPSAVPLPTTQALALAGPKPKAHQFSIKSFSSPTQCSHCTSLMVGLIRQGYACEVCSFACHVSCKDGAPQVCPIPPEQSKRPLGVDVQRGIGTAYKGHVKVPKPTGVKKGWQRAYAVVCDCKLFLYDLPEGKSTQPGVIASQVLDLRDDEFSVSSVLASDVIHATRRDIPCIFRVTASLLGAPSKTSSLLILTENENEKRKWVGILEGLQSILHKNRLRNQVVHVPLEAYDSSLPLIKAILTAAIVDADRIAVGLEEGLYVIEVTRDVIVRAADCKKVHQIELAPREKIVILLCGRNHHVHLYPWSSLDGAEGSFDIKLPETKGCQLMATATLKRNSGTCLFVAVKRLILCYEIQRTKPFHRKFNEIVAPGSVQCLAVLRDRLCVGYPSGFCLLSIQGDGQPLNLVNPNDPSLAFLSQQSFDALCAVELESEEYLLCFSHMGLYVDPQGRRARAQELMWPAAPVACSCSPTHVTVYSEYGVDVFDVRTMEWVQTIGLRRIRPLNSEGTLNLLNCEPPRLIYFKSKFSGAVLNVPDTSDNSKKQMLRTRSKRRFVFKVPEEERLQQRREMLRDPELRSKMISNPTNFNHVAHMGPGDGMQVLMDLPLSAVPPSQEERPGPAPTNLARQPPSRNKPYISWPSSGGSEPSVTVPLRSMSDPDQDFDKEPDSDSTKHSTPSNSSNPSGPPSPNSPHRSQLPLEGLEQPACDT

[4] = target: T3, Glycogen phosphorylase, brain form (Homo sapiens, UniProt P11216)
T3 sequence (P11216 whole entry): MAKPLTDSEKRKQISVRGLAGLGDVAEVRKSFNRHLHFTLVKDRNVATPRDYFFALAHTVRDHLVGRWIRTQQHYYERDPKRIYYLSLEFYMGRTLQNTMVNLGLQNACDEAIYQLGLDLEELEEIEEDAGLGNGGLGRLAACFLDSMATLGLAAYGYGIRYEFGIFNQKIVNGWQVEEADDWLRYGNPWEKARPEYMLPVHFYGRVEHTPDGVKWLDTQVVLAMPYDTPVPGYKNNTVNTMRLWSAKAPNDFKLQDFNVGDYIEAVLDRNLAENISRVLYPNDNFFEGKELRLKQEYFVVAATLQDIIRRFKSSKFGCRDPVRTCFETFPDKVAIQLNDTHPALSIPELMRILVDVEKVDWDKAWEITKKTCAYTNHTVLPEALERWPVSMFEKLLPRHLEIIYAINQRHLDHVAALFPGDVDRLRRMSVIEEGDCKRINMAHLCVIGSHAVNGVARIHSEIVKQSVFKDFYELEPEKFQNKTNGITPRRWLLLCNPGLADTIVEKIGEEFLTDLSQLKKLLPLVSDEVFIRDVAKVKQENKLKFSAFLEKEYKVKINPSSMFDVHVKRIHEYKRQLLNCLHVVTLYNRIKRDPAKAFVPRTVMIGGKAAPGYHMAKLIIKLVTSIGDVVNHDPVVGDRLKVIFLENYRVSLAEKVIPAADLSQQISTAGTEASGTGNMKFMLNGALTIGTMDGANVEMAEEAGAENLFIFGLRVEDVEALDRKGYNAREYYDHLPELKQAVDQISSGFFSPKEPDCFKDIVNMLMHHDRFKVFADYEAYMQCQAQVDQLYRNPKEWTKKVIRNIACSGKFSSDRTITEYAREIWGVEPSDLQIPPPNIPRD

[5] = target: Tyrosine-protein kinase Yes (Homo sapiens, UniProt P07947)
Sequence of Tyrosine-protein kinase Yes (P07947 whole entry): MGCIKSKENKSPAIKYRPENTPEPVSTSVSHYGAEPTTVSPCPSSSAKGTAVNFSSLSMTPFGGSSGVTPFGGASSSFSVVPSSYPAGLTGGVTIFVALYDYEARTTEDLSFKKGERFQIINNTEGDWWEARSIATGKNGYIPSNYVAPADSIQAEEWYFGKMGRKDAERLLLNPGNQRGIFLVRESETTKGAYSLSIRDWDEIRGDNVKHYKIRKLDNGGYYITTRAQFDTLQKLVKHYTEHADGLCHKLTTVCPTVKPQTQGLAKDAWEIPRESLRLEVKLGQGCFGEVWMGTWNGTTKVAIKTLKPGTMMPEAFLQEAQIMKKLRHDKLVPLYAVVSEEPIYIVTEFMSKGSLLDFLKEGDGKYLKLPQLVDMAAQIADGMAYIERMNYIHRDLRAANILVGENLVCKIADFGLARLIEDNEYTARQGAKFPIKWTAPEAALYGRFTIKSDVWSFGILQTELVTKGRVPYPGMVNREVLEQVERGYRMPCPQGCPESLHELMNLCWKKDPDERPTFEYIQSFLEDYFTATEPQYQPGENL

[6] = target: T4, Ras-related protein Rab-27A (Homo sapiens, UniProt P51159)
T4 sequence (P51159 whole entry): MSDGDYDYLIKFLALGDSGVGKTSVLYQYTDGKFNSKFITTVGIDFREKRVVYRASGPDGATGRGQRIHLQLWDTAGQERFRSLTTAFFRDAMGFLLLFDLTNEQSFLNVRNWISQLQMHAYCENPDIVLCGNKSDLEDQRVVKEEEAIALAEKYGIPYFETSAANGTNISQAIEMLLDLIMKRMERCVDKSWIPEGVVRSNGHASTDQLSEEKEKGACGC

Aurora kinase B = Aurora kinase B (Homo sapiens, UniProt Q96GD4)
Sequence of Aurora kinase B (Q96GD4 whole entry): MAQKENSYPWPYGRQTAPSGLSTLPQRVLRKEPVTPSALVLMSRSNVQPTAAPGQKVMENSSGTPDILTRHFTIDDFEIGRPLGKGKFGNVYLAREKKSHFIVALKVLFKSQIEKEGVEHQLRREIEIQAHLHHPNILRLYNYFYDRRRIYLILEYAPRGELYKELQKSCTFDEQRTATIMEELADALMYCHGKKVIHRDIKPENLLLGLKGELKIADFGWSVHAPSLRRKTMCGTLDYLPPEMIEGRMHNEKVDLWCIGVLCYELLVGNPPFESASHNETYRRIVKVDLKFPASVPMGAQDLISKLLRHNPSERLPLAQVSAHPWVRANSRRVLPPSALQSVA
Further: in the data inactive means no Kd found up to 30 µM.

| Kd [1] | Kd [2] | Kd [3] | Kd [4] | Kd [5] | Kd [6] | pKd [2] | Kd (Aurora kinase B) | Structure (SMILES) |
| --- | --- | --- | --- | --- | --- | --- | --- | --- |
| > 30 µM (inactive) | > 30 µM (inactive) | > 30 µM (inactive) | > 30 µM (inactive) | > 30 µM (inactive) | – | – | – | CCN(CCCOc1ccc2c(Nc3cc(CC(=O)Nc4cccc(F)c4)n[nH]3)ncnc2c1)CCOP(=O)(O)O [BARASERTIB] |
| > 30 µM (inactive) | > 30 µM (inactive) | > 30 µM (inactive) | > 30 µM (inactive) | > 30 µM (inactive) | > 30 µM (inactive) | – | – | COc1cc(Nc2ncc(F)c(Nc3ccc4c(n3)N(COP(=O)(O)O)C(=O)C(C)(C)O4)n2)cc(OC)c1OC [FOSTAMATINIB] |
| > 30 µM (inactive) | – | – | > 30 µM (inactive) | – | > 30 µM (inactive) | 5.58 | – | COc1cc2c(Oc3ccc4[nH]c(C)cc4c3F)ncnc2cc1OCCCN1CCCC1 [CEDIRANIB] |
| > 30 µM (inactive) | > 30 µM (inactive) | – | > 30 µM (inactive) | – | > 30 µM (inactive) | – | – | COc1cc2c(N3CCN(C(=O)Nc4ccc(OC(C)C)cc4)CC3)ncnc2cc1OCCCN1CCCCC1 [TANDUTINIB] |
| > 30 µM (inactive) | > 30 µM (inactive) | > 30 µM (inactive) | > 30 µM (inactive) | > 30 µM (inactive) | – | – | > 30 µM (inactive) | C=CC(=O)Nc1cccc(Nc2nc(Nc3ccc(N4CCN(C(C)=O)CC4)cc3OC)ncc2C(F)(F)F)c1 [ROCILETINIB] |
| > 30 µM (inactive) | > 30 µM (inactive) | > 30 µM (inactive) | > 30 µM (inactive) | > 30 µM (inactive) | – | – | – | O=C(O)c1ccc2c(c1)nc(Nc1cccc(Cl)c1)c1ccncc12 [SILMITASERTIB] |
| > 30 µM (inactive) | > 30 µM (inactive) | – | > 30 µM (inactive) | – | > 30 µM (inactive) | – | – | CC1(C)CNc2cc(NC(=O)c3cccnc3NCc3ccncc3)ccc21 [MOTESANIB] |
| > 30 µM (inactive) | > 30 µM (inactive) | – | > 30 µM (inactive) | – | > 30 µM (inactive) | – | – | Cn1cnc2c(F)c(Nc3ccc(Br)cc3Cl)c(C(=O)NOCCO)cc21 [SELUMETINIB] |
| > 30 µM (inactive) | > 30 µM (inactive) | > 30 µM (inactive) | > 30 µM (inactive) | – | – | – | > 30 µM (inactive) | CC(C)(O)CC(=O)NCCn1ccc2ncnc(Nc3ccc(Oc4cccc(C(F)(F)F)c4)c(Cl)c3)c21 [TAK-285] |
| > 30 µM (inactive) | > 30 µM (inactive) | > 30 µM (inactive) | > 30 µM (inactive) | > 30 µM (inactive) | > 30 µM (inactive) | – | – | COc1cc2nccc(Oc3ccc(NC(=O)C4(C(=O)Nc5ccc(F)cc5)CC4)cc3)c2cc1OC [CABOZANTINIB] |
| > 30 µM (inactive) | > 30 µM (inactive) | > 30 µM (inactive) | > 30 µM (inactive) | > 30 µM (inactive) | – | – | > 30 µM (inactive) | Cn1c(=O)c(F)c(Nc2ccc(I)cc2F)c2c(=O)n(C[C@@H](O)CO)cnc21 [TAK-733] |
| > 30 µM (inactive) | > 30 µM (inactive) | > 30 µM (inactive) | > 30 µM (inactive) | > 30 µM (inactive) | – | – | > 30 µM (inactive) | COc1cc2ncnc(Nc3ccc(O)cc3)c2cc1OC [WHI-P131] |
| > 30 µM (inactive) | > 30 µM (inactive) | – | > 30 µM (inactive) | – | > 30 µM (inactive) | – | – | C[C@@]1(C(=O)Nc2ccc(F)nc2)CCCN1c1nc(Nc2cc(C3CC3)n[nH]2)c2cccn2n1 [BMS-754807] |
| > 30 µM (inactive) | > 30 µM (inactive) | > 30 µM (inactive) | > 30 µM (inactive) | > 30 µM (inactive) | > 30 µM (inactive) | – | – | Cn1c(=O)n(-c2ccc(C(C)(C)C#N)cc2)c2c3cc(-c4cnc5ccccc5c4)ccc3ncc21 [DACTOLISIB] |
| > 30 µM (inactive) | > 30 µM (inactive) | – | > 30 µM (inactive) | – | > 30 µM (inactive) | – | – | CN(C)C/C=C/C(=O)Nc1cc2c(Nc3ccc(F)c(Cl)c3)ncnc2cc1O[C@H]1CCOC1 [AFATINIB] |
| > 30 µM (inactive) | > 30 µM (inactive) | > 30 µM (inactive) | > 30 µM (inactive) | – | – | – | > 30 µM (inactive) | Cc1cc(C(=O)Nc2cc(Oc3ccc4nc(NC(=O)C5CC5)cn4n3)ccc2C)n(C)n1 [TAK-593] |

| Structure (SMILES) | Kd [1] | Kd [2] | Kd [3] | Kd [4] | Kd [5] | Kd [6] | pKd [2] | Kd (Aurora kinase B) |
| --- | --- | --- | --- | --- | --- | --- | --- | --- |
| C=CCn1c(=O)c2cnc(Nc3ccc(N4CCN(C)CC4)cc3)nc2n1-c1cccc(C(C)(C)O)n1 [ADAVOSERTIB] | > 30 µM (inactive) | > 30 µM (inactive) | > 30 µM (inactive) | > 30 µM (inactive) | > 30 µM (inactive) | > 30 µM (inactive) | – | – |
| C[C@]1(O)C[C@@H](c2nc(-c3ccc4ccc(-c5ccccc5)nc4c3)c3c(N)nccn32)C1 [LINSITINIB] | > 30 µM (inactive) | > 30 µM (inactive) | > 30 µM (inactive) | > 30 µM (inactive) | > 30 µM (inactive) | > 30 µM (inactive) | – | – |
| O=S(=O)(c1cccc2cnccc12)N1CCCNCC1 [FASUDIL] | > 30 µM (inactive) | > 30 µM (inactive) | > 30 µM (inactive) | > 30 µM (inactive) | > 30 µM (inactive) | > 30 µM (inactive) | – | – |
| Cc1c(Cn2c(C)nc3c(C(=O)O)cc(N4CCOCC4)cc32)cccc1C(F)(F)F [GSK-2636771] | > 30 µM (inactive) | > 30 µM (inactive) | > 30 µM (inactive) | > 30 µM (inactive) | > 30 µM (inactive) | – | – | > 30 µM (inactive) |
| C=CCN(/C=C1/C(=O)O[C@H](COC)[C@@]2(C)C1=C(O)C(=O)C1=C2[C@H](OC(C)=O)C[C@]2(C)C(=O)CC[C@@H]12)CC=C [SONOLISIB] | – | > 30 µM (inactive) | > 30 µM (inactive) | > 30 µM (inactive) | > 30 µM (inactive) | – | – | > 30 µM (inactive) |
| CCc1nc(C(N)=O)c(Nc2ccc(N3CCC(N4CCN(C)CC4)CC3)c(OC)c2)nc1NC1CCOCC1 [GILTERITINIB] | > 30 µM (inactive) | > 30 µM (inactive) | > 30 µM (inactive) | > 30 µM (inactive) | – | > 30 µM (inactive) | – | > 30 µM (inactive) |
